Experimental findings from patent US20260297070A1, “CYCLIC [COMPOUND LEFT OUT] WRN INHIBITORS” (Nimbus Wadjet, Inc., priority 2023, published 2026) are described below.

The target of the assay is T1, human Werner helicase (WRN-BV08, Uniprot Q14191, amino acids 517-1235 with L1074F point mutation) (Homo sapiens, UniProt Q14191, L1074F).
T1 construct: Uniprot Q14191, amino acids 517-1235 with L1074F point mutation; TEV-cleavable 8×His (C, cleaved yes); made in house; host or cells: Sf9 insect cells (baculovirus)
T1 sequence (Q14191 with tags, fused parts or gaps L1074F limits assumed): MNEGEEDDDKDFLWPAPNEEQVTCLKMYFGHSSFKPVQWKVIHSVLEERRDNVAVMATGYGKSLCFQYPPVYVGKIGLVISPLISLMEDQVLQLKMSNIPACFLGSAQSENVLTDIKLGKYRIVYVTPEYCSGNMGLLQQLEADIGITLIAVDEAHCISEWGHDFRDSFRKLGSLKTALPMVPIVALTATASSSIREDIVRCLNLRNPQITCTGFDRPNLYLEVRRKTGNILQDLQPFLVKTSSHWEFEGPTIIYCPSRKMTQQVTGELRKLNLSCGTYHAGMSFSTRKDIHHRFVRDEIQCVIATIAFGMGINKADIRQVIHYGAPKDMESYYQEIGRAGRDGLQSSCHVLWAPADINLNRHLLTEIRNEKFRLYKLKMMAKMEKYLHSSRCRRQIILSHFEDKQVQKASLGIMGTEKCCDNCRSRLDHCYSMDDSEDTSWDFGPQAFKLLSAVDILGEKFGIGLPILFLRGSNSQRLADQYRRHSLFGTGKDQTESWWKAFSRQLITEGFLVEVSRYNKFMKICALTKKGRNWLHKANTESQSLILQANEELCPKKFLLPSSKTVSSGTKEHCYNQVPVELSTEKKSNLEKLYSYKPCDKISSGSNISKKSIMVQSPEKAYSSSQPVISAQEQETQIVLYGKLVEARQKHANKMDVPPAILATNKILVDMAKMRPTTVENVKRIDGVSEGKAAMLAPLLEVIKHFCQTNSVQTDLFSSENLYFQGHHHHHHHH
Description: WRN (BV08) ADP-Glo Assay. It counts as biochemical. The settings on record: 0.15 nM WRN, 5 μM ATP, 0.1 nM DNA duplex, 15 min preincubation, 60 min at 25° C., pH 7.5, 1% DMSO; read-out: ADP-Glo_hWRN_IC50. The procedure, abridged:
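Untagged WRN (Sf9-expressed, TEV-cleaved) at 0.15 nM was preincubated 15 min at 25 °C with compound, then reacted 60 min at 25 °C with 5 μM ATP and 0.1 nM DNA duplex in Bicine pH 7.5, 1 mM MgCl2. ADP-Glo luminescence gave % inhibition; IC50 by four-parameter fit.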
On the technique in general: ADP-Glo turns the ADP formed in a reaction into a luminescent signal.
With `COc1cc(CN(C(=O)C(c2ccc(-c3ccc(F)c(F)c3)cc2F)n2nccc2C)[C@@H]2C=CS(=O)(=O)C2)ccn1` (single isomer, unassigned) [I-738, (2R*)-N-[(3R)-1,1-dioxo-2,3-dihydro-1lambda6-thiophen-3-yl]-N-[(2-methoxypyridin-4-yl)methyl]-2-(5-methyl-1H-pyrazol-1-yl)-2-{3,3′,4′-trifluoro-[1,1′-biphenyl]-4-yl}acetamide], the IC50 was more than 50 µM.

Consider `CC(C)c1csc(CN(C(=O)Cc2ccc(S(F)(F)(F)(F)F)cc2)C2C=CS(=O)(=O)C2)n1` (stereo not drawn) [I-659, N-(1,1-dioxo-2,3-dihydro-1lambda6-thiophen-3-yl)-2-[4-(pentafluoro-lambda6-sulfanyl)phenyl]-N-{[4-(propan-2-yl)-1,3-thiazol-2-yl]methyl}acetamide], for which the IC50 is less than 0.5 µM.

Regarding `COc1cc(CN(C(=O)Cc2ccc(-n3cccc3C)cn2)C2C=CS(=O)(=O)C2)ccn1` (stereo not drawn) [I-250, N-(1,1-dioxo-2,3-dihydro-1lambda6-thiophen-3-yl)-N-[(2-methoxypyridin-4-yl)methyl]-2-[5-(2-methyl-1H-pyrrol-1-yl)pyridin-2-yl]acetamide], the IC50 was 5 to 10 µM.

Regarding `O=C1Cc2ccc(CC(=O)N(Cc3ccncc3)C3C=CS(=O)(=O)C3)cc2N1` (stereo not drawn) [I-542, N-(1,1-dioxo-2,3-dihydro-1lambda6-thiophen-3-yl)-2-(2-oxo-2,3-dihydro-1H-indol-6-yl)-N-[(pyridin-4-yl)methyl]acetamide], the IC50 is more than 50 µM.

For `CC(C)(O)c1cc(CN(C(=O)Cn2cc(-c3ccc(F)cc3)cn2)[C@@H]2C=CS(=O)(=O)C2)ccn1` [I-15, N-[(3R)-1,1-dioxo-2,3-dihydro-1lambda6-thiophen-3-yl]-2-[4-(4-fluorophenyl)-1H-pyrazol-1-yl]-N-{[2-(2-hydroxypropan-2-yl)pyridin-4-yl]methyl}acetamide], the IC50 is less than 0.5 µM.

Consider `Cc1cccn1-c1ccc(CC(=O)N(Cc2ccc(C(=O)N(C)Cc3cn(Cc4ccc(NC(=O)CCOCCOCCOCCOCCNC(=O)CCCC[C@@H]5SC[C@@H]6NC(=O)N[C@@H]65)cn4)nn3)cc2)C2C=CS(=O)(=O)C2)c(F)c1` (single isomer, unassigned) [II-1], for which the IC50 was 0.5 to 5 µM.

For the compound `O=C(C1CCCN(c2ccccc2)C1)N(Cc1ccncc1)C1C=CS(=O)(=O)C1` (stereo not drawn) [I-539, N-(1,1-dioxo-2,3-dihydro-1lambda6-thiophen-3-yl)-1-phenyl-N-[(pyridin-4-yl)methyl]piperidine-3-carboxamide], the IC50 was more than 50 µM.

Regarding `COc1cc(CN(C(=O)C(OC2COC2)c2ccc(-c3ccc(F)c(F)c3)cc2F)[C@@H]2C=CS(=O)(=O)C2)ccn1` (single isomer, unassigned) [I-741, (2R*)-N-[(3R)-1,1-dioxo-2,3-dihydro-1lambda6-thiophen-3-yl]-N-[(2-methoxypyridin-4-yl)methyl]-2-(oxetan-3-yloxy)-2-{3,3′,4′-trifluoro-[1,1′-biphenyl]-4-yl}acetamide], the IC50 was more than 50 µM.

With `CN(C)Cc1cccn1-c1ccc(CC(=O)N(Cc2ccccc2)C2C=CS(=O)(=O)C2)cc1` (stereo not drawn) [I-567, N-benzyl-2-(4-{2-[(dimethylamino)methyl]-1H-pyrrol-1-yl}phenyl)-N-(1,1-dioxo-2,3-dihydro-1lambda6-thiophen-3-yl)acetamide], the IC50 was more than 50 µM.

With `Cc1cccn1-c1ccc(CC(=O)N(Cc2ccnc3c2CCC3O)C2C=CS(=O)(=O)C2)c(F)c1` (stereo not drawn) [I-103, N-(1,1-dioxido-2,3-dihydrothiophen-3-yl)-2-(2-fluoro-4-(2-methyl-1H-pyrrol-1-yl)phenyl)-N-((7-hydroxy-6,7-dihydro-5H-cyclopenta[b]pyridin-4-yl)methyl)acetamide], the IC50 is 0.5 to 5 µM.

In the case of `CN(C)C(=O)C(C(=O)N(Cc1ccnc(C(C)(C)O)c1)C1C=CS(=O)(=O)C1)c1ccc(S(F)(F)(F)(F)F)cc1` (stereo not drawn) [I-192, N′-(1,1-dioxo-2,3-dihydro-1lambda6-thiophen-3-yl)-N′-{[2-(2-hydroxypropan-2-yl)pyridin-4-yl]methyl}-N,N-dimethyl-2-[4-(pentafluoro-lambda6-sulfanyl)phenyl]propanediamide], the IC50 is 0.5 to 5 µM.

Consider `COc1cc(CN(C(=O)C(C(=O)N(C)C)c2ccc(-c3ccc(F)c(F)c3)cc2F)C2C=CS(=O)(=O)C2)ccn1` (stereo not drawn) [I-37, N′-(1,1-dioxo-2,3-dihydro-1lambda6-thiophen-3-yl)-N′-[(2-methoxypyridin-4-yl)methyl]-N,N-dimethyl-2-{3,3′,4′-trifluoro-[1,1′-biphenyl]-4-yl}propanediamide], for which the IC50 was less than 0.5 µM.

For the compound `COC(C(=O)N(Cc1nc(C2CC2)cs1)C1C=CS(=O)(=O)C1)c1ccc(S(F)(F)(F)(F)F)cc1` (stereo not drawn) [I-74, N-[(4-cyclopropyl-1,3-thiazol-2-yl)methyl]-N-(1,1-dioxo-2,3-dihydro-1lambda6-thiophen-3-yl)-2-methoxy-2-[4-(pentafluoro-lambda6-sulfanyl)phenyl]acetamide], the IC50 is less than 0.5 µM.

In the case of `CC(F)(F)c1ccc(CC(=O)N(Cc2ccncc2)C2C=CS(=O)(=O)C2)cc1` (stereo not drawn) [I-191, 2-[4-(1,1-difluoroethyl)phenyl]-N-(1,1-dioxo-2,3-dihydro-1lambda6-thiophen-3-yl)-N-[(pyridin-4-yl)methyl]acetamide], the IC50 is 0.5 to 5 µM.

Take `O=C(Cc1ccc(-c2ccc(F)cc2F)cc1)N(Cc1ccncc1)C1C=CS(=O)(=O)C1` (stereo not drawn) [I-203, 2-{2′,4′-difluoro-[1,1′-biphenyl]-4-yl}-N-(1,1-dioxo-2,3-dihydro-1lambda6-thiophen-3-yl)-N-[(pyridin-4-yl)methyl]acetamide]: the IC50 lay within 0.5 to 5 µM.

`O=C(C(C(=O)N(Cc1ccncc1)C1C=CS(=O)(=O)C1)c1ccc(-c2ccc(F)cc2)cc1)N1CCOCC1` (stereo not drawn) [I-218, N-(1,1-dioxo-2,3-dihydro-1lambda6-thiophen-3-yl)-2-{4′-fluoro-[1,1′-biphenyl]-4-yl}-3-(morpholin-4-yl)-3-oxo-N-[(pyridin-4-yl)methyl]propanamide]: the IC50 lay within 5 to 10 µM.

Turning to `O=C(Cc1ccc(C2CCCC2)cc1)N(Cc1ccncc1)C1C=CS(=O)(=O)C1` (stereo not drawn) [I-217, 2-(4-cyclopentylphenyl)-N-(1,1-dioxo-2,3-dihydro-1lambda6-thiophen-3-yl)-N-[(pyridin-4-yl)methyl]acetamide], the IC50 lay within 0.5 to 5 µM.

With `COc1cc(CN(C(=O)C(c2ccc(-c3ccc(F)c(F)c3)cc2F)n2cc(C(F)F)cn2)[C@@H]2C=CS(=O)(=O)C2)ccn1` (single isomer, unassigned) [I-711, (2R*)-2-[4-(difluoromethyl)-1H-pyrazol-1-yl]-N-[(3R)-1,1-dioxo-2,3-dihydro-1lambda6-thiophen-3-yl]-N-[(2-methoxypyridin-4-yl)methyl]-2-{3,3′,4′-trifluoro-[1,1′-biphenyl]-4-yl}acetamide], the IC50 is more than 50 µM.

In the case of `O=C(Cc1ccc(-c2ccc(F)cc2)cc1C(F)(F)F)N(Cc1ccncc1)C1C=CS(=O)(=O)C1` (stereo not drawn) [I-465, N-(1,1-dioxo-2,3-dihydro-1lambda6-thiophen-3-yl)-2-[4′-fluoro-3-(trifluoromethyl)-[1,1′-biphenyl]-4-yl]-N-[(pyridin-4-yl)methyl]acetamide], the IC50 is more than 50 µM.

For `CC(C)(O)c1csc(CN(C(=O)Cn2cc(-c3cc(F)c(F)c(F)c3)cn2)C2C=CS(=O)(=O)C2)n1` (stereo not drawn) [I-797, N-(1,1-dioxo-2,3-dihydro-1lambda6-thiophen-3-yl)-N-{[4-(2-hydroxypropan-2-yl)-1,3-thiazol-2-yl]methyl}-2-[4-(3,4,5-trifluorophenyl)-1H-pyrazol-1-yl]acetamide], the IC50 was less than 0.5 µM.

As for `O=C(NC(Cc1c[nH]c2ccccc12)C(=O)N(Cc1ccncc1)C1C=CS(=O)(=O)C1)c1ccc(F)cc1` (single isomer, unassigned) [I-561], the IC50 was more than 50 µM.

For the compound `CC(C)(O)c1cc(CN(C(=O)C2Cc3cc(-c4ccc(F)cc4)ccc3O2)C2C=CS(=O)(=O)C2)ccn1` (stereo not drawn) [I-298, N-(1,1-dioxo-2,3-dihydro-1lambda6-thiophen-3-yl)-5-(4-fluorophenyl)-N-{[2-(2-hydroxypropan-2-yl)pyridin-4-yl]methyl}-2,3-dihydro-1-benzofuran-2-carboxamide], the IC50 fell in the range of 10 to 50 µM.

With `Cc1cccn1-c1ccc(CC(=O)N(Cc2ccc(C(=O)O)cc2)C2C=CS(=O)(=O)C2)c(F)c1` (stereo not drawn) [I-138, 4-{[N-(1,1-dioxo-2,3-dihydro-1lambda6-thiophen-3-yl)-2-[2-fluoro-4-(2-methyl-1H-pyrrol-1-yl)phenyl]acetamido]methyl}benzoic acid], the IC50 fell in the range of 0.5 to 5 µM.

As to `COc1cc(CN(C(=O)C2CCc3c([nH]c4cccc(Cl)c34)C2)[C@@H]2C=CS(=O)(=O)C2)ccn1` (stereo partly drawn) [I-785, 5-chloro-N-[(3R)-1,1-dioxo-2,3-dihydro-1lambda6-thiophen-3-yl]-N-[(2-methoxypyridin-4-yl)methyl]-2,3,4,9-tetrahydro-1H-carbazole-2-carboxamide], the IC50 was more than 50 µM.

For `O=C(Cc1csc(-c2ccccc2)n1)N(Cc1ccncc1)C1C=CS(=O)(=O)C1` (stereo not drawn) [I-547, N-(1,1-dioxo-2,3-dihydro-1lambda6-thiophen-3-yl)-2-(2-phenyl-1,3-thiazol-4-yl)-N-[(pyridin-4-yl)methyl]acetamide], the IC50 is more than 50 µM.

With `O=C(Cc1coc(-c2ccc(F)c(F)c2)n1)N(Cc1ccncc1)C1C=CS(=O)(=O)C1` (stereo not drawn) [I-410, 2-[2-(3,4-difluorophenyl)-1,3-oxazol-4-yl]-N-(1,1-dioxo-2,3-dihydro-1lambda6-thiophen-3-yl)-N-[(pyridin-4-yl)methyl]acetamide], the IC50 is more than 50 µM.

Regarding `O=C(Cc1ccc(-n2cccc2)cc1)N(Cc1ccnc(Cl)c1)C1C=CS(=O)(=O)C1` (stereo not drawn) [I-160, N-[(2-chloropyridin-4-yl)methyl]-N-(1,1-dioxo-2,3-dihydro-1lambda6-thiophen-3-yl)-2-[4-(1H-pyrrol-1-yl)phenyl]acetamide], the IC50 is 0.5 to 5 µM.
